From patent US7087642B2 (priority 1999, dated 2006)
Like-named read-outs stand apart in the source and are kept apart here.

Legend:
human PBMC B cells = assay: cells; assay type: cell-based; details: read-out: B-cells (IC50)
IMPDH human type II = IMPDH human type II (Homo sapiens, UniProt P12268); assay: biochemical
human PBMC T cells = assay: cells; assay type: cell-based; details: read-out: T-cells (IC50)

| Structure (SMILES) | IC50 (human PBMC B cells) | Ki (IMPDH human type II; read-out: Ki) | IC50 (human PBMC T cells) | IC50 (human PBMC B cells; Homo sapiens, 72 h) | IC50 (human PBMC T cells; Homo sapiens, 72 h) | Ki (IMPDH human type II) |
| --- | --- | --- | --- | --- | --- | --- |
| COc1cc(NC(=O)Nc2cccc(CNC(=O)O[C@H](CC#N)CN3CCOCC3)c2)ccc1-c1cnco1 [Compound 18] | > 1000 nM | < 10 nM | > 1000 nM |  |  |  |
| COc1cc(NC(=O)Nc2cccc(CNC(=O)OCCCOC(C)=O)c2)ccc1-c1cnco1 [Compound 58] |  | < 10 nM |  | 100 to 1000 nM | 100 to 1000 nM |  |
| COc1cc(NC(=O)Nc2cccc(CNC(=O)OC[C@H](CC#N)N(C)C)c2)ccc1-c1cnco1 [Compound 6] |  | < 10 nM |  | 100 to 1000 nM | 100 to 1000 nM |  |
| CC[C@H](CC#N)OC(=O)NCc1cccc(NC(=O)Nc2ccc(-c3cnco3)c(OC)c2)c1 [Compound 81] |  | 10 to 50 nM |  | 100 to 1000 nM | 100 to 1000 nM |  |
| COc1cc(NC(=O)Nc2cccc(CNC(=O)O[C@H](CO)CCC#N)c2)ccc1-c1cnco1 [Compound 59] |  | < 10 nM |  | 100 to 1000 nM | > 1000 nM |  |
| CCN(CCC(OC(=O)NCc1cccc(NC(=O)Nc2ccc(-c3cnco3)c(OC)c2)c1)c1ccccc1)C(C)C (stereo not drawn) [Compound 129] |  | > 50 nM |  | 100 to 1000 nM | 100 to 1000 nM |  |
| COc1cc(NC(=O)Nc2cccc(CNC(=O)O[C@@H](CO)CC#N)c2)ccc1-c1cnco1 [Compound 62] |  | < 10 nM |  | 100 to 1000 nM | 100 to 1000 nM |  |
| CC[C@@H](CCN(CC)CC)OC(=O)NCc1cccc(NC(=O)Nc2ccc(-c3cnco3)c(OC)c2)c1 [Compound 102] |  | < 10 nM |  | 100 to 1000 nM | 100 to 1000 nM |  |
| COc1cc(NC(=O)Nc2cccc(CNC(=O)OC(CC#N)C(C)(C)C)c2)ccc1-c1cnco1 (stereo not drawn) [Compound 46] |  | < 10 nM |  | 100 to 1000 nM | 100 to 1000 nM |  |
| CCCCC(CC#N)OC(=O)NCc1cccc(NC(=O)Nc2ccc(-c3cnco3)c(OC)c2)c1 (stereo not drawn) [Compound 33] |  | < 10 nM |  | 100 to 1000 nM | 100 to 1000 nM |  |
| COc1cc(NC(=O)Nc2cccc(CNC(=O)OC(CCN(C)C)c3ccccc3)c2)ccc1-c1cnco1 (stereo not drawn) [Compound 35] |  | < 10 nM |  | 100 to 1000 nM | 100 to 1000 nM |  |
| COc1cc(NC(=O)Nc2cccc([C@H](C)NC(=O)O[C@H]3CCOC3)c2)ccc1C#N [Compound 185] | 100 to 1000 nM | 10 to 50 nM | 100 to 1000 nM |  |  |  |
| CCCN(CCC)CCC(OC(=O)NCc1cccc(NC(=O)Nc2ccc(-c3cnco3)c(OC)c2)c1)c1ccccc1 (stereo not drawn) [Compound 123] |  | > 50 nM |  | > 1000 nM | > 1000 nM |  |
| CC[C@H](CCC#N)OC(=O)N[C@@H](C)c1cccc(NC(=O)Nc2ccc(C#N)c(OC)c2)c1 [Compound 162] |  | 10 to 50 nM |  | 100 to 1000 nM | 100 to 1000 nM |  |
| COc1cc(NC(=O)Nc2cccc(CNC(=O)OCCOCCC#N)c2)ccc1-c1cnco1 [Compound 2] |  | < 10 nM |  | 100 to 1000 nM | 100 to 1000 nM |  |
| COc1cc(NC(=O)Nc2cccc(CNC(=O)OC[C@@H](N)CC#N)c2)ccc1-c1cnco1 [Compound 5] |  | < 10 nM |  | > 1000 nM | > 1000 nM |  |
| COc1cc(NC(=O)Nc2cccc(CNC(=O)O[C@@H](CO)CSC)c2)ccc1-c1cnco1 [Compound 88] |  | < 10 nM |  | 100 to 1000 nM | 100 to 1000 nM |  |
| CC[C@@H](CCC#N)OC(=O)NCc1cccc(NC(=O)Nc2ccc(-c3cnco3)c(OC)c2)c1 [Compound 101] |  | < 10 nM |  | < 100 nM | < 100 nM |  |
| CCN(CC)CC(OC(=O)Nc1ccc(NC(=O)Nc2ccc(-c3cnco3)c(OC)c2)cc1)C(C)(C)C (stereo not drawn) [Compound 132] |  | > 50 nM |  | 100 to 1000 nM | 100 to 1000 nM |  |
| COc1cc(NC(=O)Nc2cccc(CNC(=O)OCCN(CCC#N)CCC#N)c2)ccc1-c1cnco1 [Compound 14] |  | < 10 nM |  | 100 to 1000 nM | > 1000 nM |  |
| COc1cc(NC(=O)Nc2cccc(CNC(=O)Oc3cccc(/C=C/C(=O)OC(C)(C)C)c3)c2)ccc1-c1cnco1 [Compound 74] |  |  |  | > 1000 nM | > 1000 nM | < 10 nM |
| CCCC(COC)OC(=O)NCc1cccc(NC(=O)Nc2ccc(-c3cnco3)c(OC)c2)c1 (stereo not drawn) [Compound 38] |  | < 10 nM |  | 100 to 1000 nM | 100 to 1000 nM |  |
| COc1cc(NC(=O)Nc2cccc(CNC(=O)O[C@H](CN3CCCCC3)c3ccccc3)c2)ccc1-c1cnco1 [Compound 99] |  | 10 to 50 nM |  | 100 to 1000 nM | 100 to 1000 nM |  |
| CCOc1cc(NC(=O)Nc2cccc([C@H](C)NC(=O)O[C@H](CC)CC#N)c2)ccc1C#N [Compound 182] |  | > 50 nM |  | 100 to 1000 nM | > 1000 nM |  |
| COc1cc(NC(=O)Nc2cccc(CNC(=O)OC(CCN3CCCCC3)c3ccccc3)c2)ccc1-c1cnco1 (stereo not drawn) [Compound 50] |  | < 10 nM |  | > 1000 nM | > 1000 nM |  |
| CCC(CCO)OC(=O)NCc1cccc(NC(=O)Nc2ccc(-c3cnco3)c(OC)c2)c1 (stereo not drawn) [Compound 43] |  | < 10 nM |  | 100 to 1000 nM | 100 to 1000 nM |  |
